# Patent publication US9879043B1, “Synthesis of non-natural cofactor analogs of S-adenosyl-L-methionine using methionine adenosyltransferase” (University of Kentucky Research Foundation, priority 2013, dated 2018)
# Where two headings read alike, the source gives them in different places.
# Experiments:
# [1] = molecular target: T1, Methanocaldococcus jannaschii MAT (mMAT) (Methanocaldococcus jannaschii, UniProt Q58605); type: biochemical; conditions: 2 mM Met analog, 1 mM ATP, 5 μM MAT, pH 8, 4 h, 65° C.; average of two assays
# T1 sequence (Q58605 1-406): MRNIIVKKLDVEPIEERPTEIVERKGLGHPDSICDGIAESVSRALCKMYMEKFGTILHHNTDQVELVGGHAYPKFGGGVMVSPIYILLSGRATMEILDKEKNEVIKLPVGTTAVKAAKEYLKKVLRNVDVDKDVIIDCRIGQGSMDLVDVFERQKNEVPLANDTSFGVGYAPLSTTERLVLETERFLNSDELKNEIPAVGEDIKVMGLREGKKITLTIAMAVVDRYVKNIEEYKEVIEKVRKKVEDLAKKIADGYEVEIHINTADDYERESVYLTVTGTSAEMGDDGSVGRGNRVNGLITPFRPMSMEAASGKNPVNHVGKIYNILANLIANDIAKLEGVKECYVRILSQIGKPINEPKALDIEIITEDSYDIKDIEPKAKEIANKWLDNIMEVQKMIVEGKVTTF
# [2] = molecular target: T2, Sulfolobus solfataricus MAT (sMAT) (Saccharolobus solfataricus, UniProt Q980S9); type: biochemical; conditions: 2 mM analog, 1 mM ATP, 5 μM sMAT, pH 8.0, 4 h at 65° C., average of two assays
# T2 sequence (Q980S9 1-404): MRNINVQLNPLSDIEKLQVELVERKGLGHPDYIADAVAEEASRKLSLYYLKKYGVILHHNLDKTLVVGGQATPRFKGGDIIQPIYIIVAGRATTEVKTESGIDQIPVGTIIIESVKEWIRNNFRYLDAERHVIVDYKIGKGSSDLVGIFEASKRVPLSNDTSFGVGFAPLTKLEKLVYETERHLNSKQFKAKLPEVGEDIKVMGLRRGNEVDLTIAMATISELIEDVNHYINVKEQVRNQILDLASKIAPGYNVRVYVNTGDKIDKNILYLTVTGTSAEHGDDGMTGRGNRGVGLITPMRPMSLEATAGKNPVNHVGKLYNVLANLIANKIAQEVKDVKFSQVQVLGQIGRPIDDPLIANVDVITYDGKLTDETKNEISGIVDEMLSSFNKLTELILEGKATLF
structure (smiles),measurement,setting,value
"CCSCC[C@H](N)C(=O)O [compound 3, (2S)-2-amino-4-(ethylsulfanyl)butanoic acid]",Percentage Turn-over mMAT,[1],94%
same,Percentage Turn-Over (sMAT),[2],84%
same,Percentage Turn-Over (sMAT),[2]; listed as ethionine,~100%
